From patent US20140255392A1 (BAYER INTELLECTUAL PROPERTY GMBH, priority 2011, published 2014) come the findings set out here.

This assay has as its target T1, human kinase Mps-1 (Homo sapiens, UniProt P33981).
T1 construct: N-terminally GST-tagged human full length recombinant Mps-1 kinase; GST (N); purchased Invitrogen, Karslruhe, Germany PV4071
T1 sequence (P33981 1-857): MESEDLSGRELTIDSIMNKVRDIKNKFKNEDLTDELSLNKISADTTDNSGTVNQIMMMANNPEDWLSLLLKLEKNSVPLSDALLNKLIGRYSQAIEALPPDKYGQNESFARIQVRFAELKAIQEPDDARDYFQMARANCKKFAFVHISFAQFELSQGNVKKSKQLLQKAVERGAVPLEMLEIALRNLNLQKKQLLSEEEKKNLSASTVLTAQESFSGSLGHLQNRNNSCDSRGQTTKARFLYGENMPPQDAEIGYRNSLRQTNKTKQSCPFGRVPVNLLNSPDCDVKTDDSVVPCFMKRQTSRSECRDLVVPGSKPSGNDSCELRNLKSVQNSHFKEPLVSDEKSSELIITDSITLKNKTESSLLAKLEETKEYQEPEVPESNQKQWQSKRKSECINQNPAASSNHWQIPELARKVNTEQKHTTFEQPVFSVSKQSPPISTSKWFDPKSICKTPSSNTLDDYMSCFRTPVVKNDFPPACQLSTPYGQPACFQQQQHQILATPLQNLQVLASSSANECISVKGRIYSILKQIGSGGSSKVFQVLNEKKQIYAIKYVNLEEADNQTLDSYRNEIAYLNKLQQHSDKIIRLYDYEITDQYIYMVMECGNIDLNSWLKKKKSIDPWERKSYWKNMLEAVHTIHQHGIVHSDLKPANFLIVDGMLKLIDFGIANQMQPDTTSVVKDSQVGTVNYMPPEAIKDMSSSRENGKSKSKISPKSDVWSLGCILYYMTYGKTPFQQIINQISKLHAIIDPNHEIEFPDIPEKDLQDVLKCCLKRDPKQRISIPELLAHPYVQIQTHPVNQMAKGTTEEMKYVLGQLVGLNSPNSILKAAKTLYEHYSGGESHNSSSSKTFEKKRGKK
Briefly: Mps-1 kinase assay (TR-FRET). Type of assay: biochemical. To be noted: N-terminally GST-tagged human full length recombinant Mps-1; 10 μM ATP; 1 μM peptide substrate; 60 min at 22° C. In short, it runs like this:
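GST-Mps-1 (full length, N-term tag) ~1 nM final, linear-range adjusted per lot; biotinylated peptide substrate. Detection: Eu-anti-pSer/Thr donor → SA-XLent acceptor TR-FRET, 1 h, 22° C. Inhibition of kinase activity.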
(TR-FRET usually uses a lanthanide donor and a delayed reading to cut background.)

By IC50 is commonly meant the concentration that gives 50% inhibition. As to `CCNC(=O)c1ccc(-c2cnc3c(NCCC(F)(F)F)cc(Oc4cccc(Cl)c4)cn23)cc1C` [Example 35, 4-{6-(3-chlorophenoxy)-8-[(3,3,3-trifluoropropyl)amino]imidazo[1,2-a]pyridin-3-yl}-N-ethyl-2-methylbenzamide], the IC50 was found to be 6.3 nM. Next, `CCc1cc(NCCC(F)(F)F)c2ncc(-c3ccc(C(=O)NC)c(C)c3)n2c1` [Example 100, 4-{6-Ethyl-8-[(3,3,3-trifluoropropyl)amino]imidazo[1,2-a]pyridin-3-yl}-N,2-dimethylbenzamide]: 106 nM; `C/C=C/c1cc(NCCC(F)(F)F)c2ncc(-c3ccc(C(=O)NC4(C)CC4)c(C)c3)n2c1` [Example 114, 2-Methyl-N-(1-methylcyclopropyl)-4-{6-[(1E)-prop-1-en-1-yl]-8-[(3,3,3-trifluoropropyl)amino]imidazo[1,2-a]pyridin-3-yl}benzamide]: 75.3 nM; `C#Cc1cc(NCCC(F)(F)F)c2ncc(-c3ccc(C(=O)NC4(C#N)CC4)c(C)c3)n2c1` [Example 18, N-(1-cyanocyclopropyl)-4-{6-ethynyl-8-[(3,3,3-trifluoropropyl)amino]imidazo[1,2-a]pyridin-3-yl}-2-methylbenzamide]: 65.5 nM.

Take `CNC(=O)c1ccc(-c2cnc3c(NCCC(F)(F)F)cc(-c4ccc(C(N)=O)c(C)c4)cn23)cc1C` [Example 160, 4-{6-(4-carbamoyl-3-methylphenyl)-8-[(3,3,3-trifluoropropyl)amino]imidazo[1,2-a]pyridin-3-yl}-N,2-dimethylbenzamide]: the concentration for half-maximal inhibition (IC50) was determined as 2.3 nM. With `CCNC(=O)c1ccc(-c2cnc3c(NCCC(F)(F)F)cc(Oc4ccc(OC(F)(F)F)cc4)cn23)cc1C` [Example 68, N-ethyl-2-methyl-4-{6-[4-(trifluoromethoxy)phenoxy]-8-[(3,3,3-trifluoropropyl)amino]imidazo[1,2-a]pyridin-3-yl}benzamide], the half-inhibitory concentration (IC50) was found to be 124 nM. For `CNC(=O)c1ccc(-c2cnc3c(NCCC(F)(F)F)cc(/C=C\CO)cn23)cc1C` [Example 119, 4-{6-[(1Z)-3-hydroxyprop-1-en-1-yl]-8-[(3,3,3-trifluoropropyl)amino]imidazo[1,2-a]pyridin-3-yl}-N,2-dimethylbenzamide] the value was 54.7 nM.
